One data set concerns the target T1, hCTR (Homo sapiens, UniProt P30988).
T1 sequence (P30988 25-474): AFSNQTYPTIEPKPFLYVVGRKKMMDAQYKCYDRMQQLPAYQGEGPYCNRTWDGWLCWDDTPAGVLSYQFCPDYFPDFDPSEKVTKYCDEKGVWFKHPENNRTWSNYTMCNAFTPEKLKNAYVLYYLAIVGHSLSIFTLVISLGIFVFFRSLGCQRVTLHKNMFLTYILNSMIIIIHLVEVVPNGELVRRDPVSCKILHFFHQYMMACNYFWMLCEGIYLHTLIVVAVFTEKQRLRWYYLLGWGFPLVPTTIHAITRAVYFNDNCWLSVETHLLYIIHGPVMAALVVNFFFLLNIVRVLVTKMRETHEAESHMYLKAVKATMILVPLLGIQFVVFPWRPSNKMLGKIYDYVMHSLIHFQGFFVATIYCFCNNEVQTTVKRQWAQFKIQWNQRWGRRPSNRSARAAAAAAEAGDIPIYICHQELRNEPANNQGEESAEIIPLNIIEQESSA
In words: cAMP-responsive element luciferase reporter assay, human CTR. The following applies: luciferase (human receptor assay). The class given is cell-based. Background: Reporter assays use an easily measured gene product as a stand-in for the process of interest.

For another data set, the target named is T2, rat AMY3R (Rattus norvegicus, UniProt P32214+Q9JJ73).
T2 construct: expressed in transfected cells; host or cells: BHK tk-ts 13, transient co-transfection (FuGENE 6)
T2 sequence (P32214 25-479 isoform P32214-2 limits assumed): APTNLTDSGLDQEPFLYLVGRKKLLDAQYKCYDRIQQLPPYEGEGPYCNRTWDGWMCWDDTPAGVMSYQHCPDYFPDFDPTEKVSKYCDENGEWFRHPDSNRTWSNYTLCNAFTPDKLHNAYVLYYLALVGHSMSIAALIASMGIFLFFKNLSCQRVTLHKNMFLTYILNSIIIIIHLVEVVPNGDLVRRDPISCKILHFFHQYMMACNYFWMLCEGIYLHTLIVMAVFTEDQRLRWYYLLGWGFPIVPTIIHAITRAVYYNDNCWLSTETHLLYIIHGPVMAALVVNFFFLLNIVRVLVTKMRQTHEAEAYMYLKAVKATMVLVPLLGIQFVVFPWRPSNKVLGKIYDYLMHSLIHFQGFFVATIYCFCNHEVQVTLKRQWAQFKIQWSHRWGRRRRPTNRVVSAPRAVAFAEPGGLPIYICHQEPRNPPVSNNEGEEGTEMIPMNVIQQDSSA
T2 sequence (Q9JJ73 23-147 partner): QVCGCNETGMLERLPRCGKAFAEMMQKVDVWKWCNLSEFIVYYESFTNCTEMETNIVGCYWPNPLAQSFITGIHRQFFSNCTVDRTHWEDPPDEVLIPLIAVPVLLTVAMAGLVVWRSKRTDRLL
Put plainly: cAMP FlashPlate assay, rat AMY3R. The class given is cell-based. The following applies: for EC50: cAMP (rat receptor assay).

Another data set has as its target T3, rat CTR (Rattus norvegicus, UniProt P32214).
T3 construct: expressed in transfected cells; host or cells: BHK tk-ts 13, transient (FuGENE 6)
T3 sequence (P32214 25-479 isoform P32214-2 limits assumed): T2 sequence (P32214 25-479 isoform P32214-2 limits assumed)
Put plainly: cAMP FlashPlate assay, rat CTR. The class given is cell-based. The following applies: cAMP (rat receptor assay).

The nature of data set [1]: Solubility versus pH profile.
Data set [2] in a line: ThT assay: fibril formation propensity and peptide recovery. The class given is physicochemical. As to the method: The stability properties of the individual amylin analogs were assessed with respect to their propensity toward fibril formation, expressed as the time until fibril formation (measured as Lag time) and loss of dissolved peptide (assessed as Peptide Recovery). […] Samples were prepared as described previously (using the same methodology and materials) for a novel amylin-based analog candidate compound.[7]
Briefly, each compound was dissolved in 10 mM of glycylglycine buffer (pH 4.0) or HEPES buffer (pH 7.5) to a concentration of 250 μM, followed by ThT stock solution to a final concentration of 1 μM. Each solution was aliquoted into a microtiter plate (200 μL/well) sealed with a transparent adhesive sheet. Mechanical stress was applied at 37 °C incubation (960 rpm, 1 mm amplitude) with 20 min fluorescence reading intervals for 45 h (filters: excitation 444 nm; emission 485 nm). Each peptide was tested in experiments consisting of four replicas (e.g., four wells on the same plate), and the lag time of each replica was determined by visual inspection of the fluorescence-versus-time plot. For wells where no fibril formation could be detected, the lag time was set longer than the test period (>45 h). The lag time of the peptide was set to the lowest lag time of the four replicates (conservative estimate). Some of the peptides were tested in more than one experiment, and the lag time results given in Tables 6 and 9 represent the average of these experiments. The ThT time course data given in Supporting Information represent the average and SEM of each experiment.[40] After analysis, wells representing individual replicas were pooled, and the residual soluble peptide was isolated using centrifugation (20,000 g/30 min at room temperature) followed by […] filtration. The amount of residual dissolved peptide was determined using an HPLC with a flow rate of 2 mL/min at 30 °C and 215/276 nm detection. A gradient combining eluent A (7.7% w/w acetonitrile, 200 mM Na2SO4, 20 mM NaH2PO4, 20 mM Na2HPO4, pH 7.2) and eluent B (65.5% w/w acetonitrile) was applied. The amount of residual dissolved peptide was reported on a relative scale (Peptide Recovery) to the amount of dissolved peptide prior to mechanical stress.

Data set [3] can be described thus: HMWP content by size-exclusion chromatography. Format: physicochemical. The following applies: analogs 1–9 (pH 7.5 series); covalent dimers and polymers prior to fibril formation testing, SEC, % of total absorbance area at 215 nm. As for the experimental part: The stability properties of the individual amylin analogs were assessed with respect to their propensity toward amyloid fibril formation. The relative amount of covalent dimers and polymers (HMWP) present prior to fibril formation testing was measured as a control for the potential inhibitory effect of HMWP on fibril formation propensity as reported elsewhere.[39]
Elution was performed under isocratic conditions with the following mobile phase prepared in Milli-Q water (Millipore A/S): 0.5 M NaCl, 10 mM sodium dihydrogen monohydrate, 5 mM ortho-phosphoric acid, 50% (v/v) 2-propanol. The amount of HMWP was determined as the absorbance area of the corresponding peaks given in percentage of the total absorbance area. The molar extinction coefficients of the molecules eluting in the HMWP fraction and the main peak was assumed to be equal.
A general note: In gel filtration, larger molecules generally elute earlier.

A further data set deals with T4, hAMY3R (Homo sapiens, UniProt O60896+P30988).
T4 sequence (P30988 25-474): T1 sequence (P30988 25-474)
T4 sequence (O60896 24-148 partner): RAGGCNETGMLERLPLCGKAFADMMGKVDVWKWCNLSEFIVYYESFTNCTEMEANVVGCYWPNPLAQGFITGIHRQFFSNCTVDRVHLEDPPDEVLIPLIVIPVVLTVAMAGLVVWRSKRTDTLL
Put plainly: cAMP-responsive element luciferase reporter assay, human AMY3R. Also noted: expressed in transfected cells. The class given is cell-based. The following applies: for EC50: luciferase (human receptor assay).

Another data set has as its system cCTR. Put plainly: Species-specific cAMP assay, cCTR. The following applies: cAMP HTRF, transiently transfected BHK cells, 30 min room temperature, five experiments. For orientation: Cyclic AMP is a second messenger, typically raised through Gs and lowered through Gi signalling.
In a further data set the test system is cAMY1R. In words: Species-specific cAMP assay, cAMY1R. The following applies: cAMP HTRF, transiently transfected BHK cells, 30 min room temperature, five experiments.
Another data set has as its system cAMY3R. Put plainly: Species-specific cAMP assay, cAMY3R. The following applies: cAMP HTRF, transiently transfected BHK cells, 30 min room temperature, five experiments.

Read-outs that look alike come from different tables or passages of the source. Numbered stars: 1 amine (or outer) side, 2 acyl side, 3 side chain; on linkers, the order of the positions; unused ones are H or OH. Bridge positions count the residues as written; N and C are the ends. Side chains are listed from the residue outwards. Peptide text beside a SMILES is read from it. * marks the point of attachment. C20 diacid = O=C(O)CCCCCCCCCCCCCCCCCCC(=O)*; γGlu = O=C(O)[C@H](CCC(=O)[*:2])N[*:1]

On to `CC(C)C[C@H](NC(=O)[C@H](CCCNC(=N)N)NC(=O)[C@H](CCC(N)=O)NC(=O)[C@@H](NC(=O)[C@H](C)NC(=O)[C@@H]1CSSC[C@H](NC(=O)[C@@H](N)CCCCNC(=O)CC[C@H](NC(=O)CCCCCCCCCCCCCCCCCCC(=O)O)C(=O)O)C(=O)N[C@@H](CC(N)=O)C(=O)N[C@@H]([C@@H](C)O)C(=O)N[C@@H](C)C(=O)N[C@@H]([C@@H](C)O)C(=O)N1)[C@@H](C)O)C(=O)N[C@@H](C)C(=O)N[C@@H](CC(=O)O)C(=O)N[C@@H](Cc1ccccc1)C(=O)N[C@@H](CC(C)C)C(=O)N[C@@H](CCCNC(=N)N)C(=O)N[C@@H](Cc1c[nH]cn1)C(=O)N[C@@H](CO)C(=O)N[C@@H](CO)C(=O)N[C@@H](CCC(N)=O)C(=O)N[C@@H](CC(N)=O)C(=O)N[C@@H](Cc1ccccc1)C(=O)NCC(=O)N[C@@H](C)C(=O)N1CCC[C@H]1C(=O)N[C@@H](CC(C)C)C(=O)N[C@@H](CO)C(=O)N[C@@H](CO)C(=O)N[C@H](C(=O)N1CCC[C@H]1C(=O)N[C@H](C(=O)NCC(=O)N[C@@H](CO)C(=O)N[C@@H](CC(=O)O)C(=O)N[C@H](C(=O)N[C@@H](Cc1ccc(O)cc1)C(N)=O)[C@@H](C)O)C(C)C)[C@@H](C)O` [Peptide 1] (H-K([γGlu-C20 diacid])CNTATCATQRLADFLRHSSQNFGAPLSSTPVGSDTY-NH2; disulfide 2-7), for which the EC50 at hCTR (Tables S12 and S14, read-out: hCTR pEC50 (converted)) is 0.692 nM; on hCTR (BHK cells stably expressing hCTR and CRE-luciferase, 3 h, 37 °C, 10% FBS, read-out: hCTR EC50), 0.697 nM; on rat AMY3R (Tables S12 and S14, read-out: rAMY3R pEC50 (converted)), 0.468 nM; at rat AMY3R (transiently transfected BHK tk-ts 13 cells, FlashPlate, 30 min room temperature, 2% HSA, read-out: rAMY3R EC50) it was 0.463 nM; on rat CTR (Tables S12 and S14, read-out: rCTR pEC50 (converted)) it was 14.5 nM; at rat CTR (transiently transfected BHK tk-ts 13 cells, FlashPlate, 30 min room temperature, 2% HSA, read-out: rCTR EC50) it was 14.3 nM. The EC50 is 0.182 nM on hAMY3R (Tables S12 and S14, read-out: hAMY3R pEC50 (converted)); 0.18 nM at hAMY3R (BHK cells stably expressing hCTR+RAMP3 and CRE-luciferase, 3 h, 37 °C, 10% FBS, read-out: hAMY3R EC50). At rat AMY3R (ratio of cAMP EC50 values), the “ratio rCTR/rAMY3R” value amounted to 31. In addition, the solubility (kinetic) (commonly the concentration staying in solution when a stock, usually in DMSO, is diluted into the medium) in data set [1] (bis-tris-propane buffer, pH 6, aqueous buffer) was at least 200 µM; in data set [1] (bis-tris-propane buffer, pH 6.5, aqueous buffer), at least 200 µM; in [1] (bis-tris-propane buffer, pH 7, aqueous buffer), at least 200 µM; in data set [1] (bis-tris-propane buffer, pH 7.5, aqueous buffer), at least 200 µM; in data set [1] (bis-tris-propane buffer, pH 8, aqueous buffer), at least 200 µM; in data set [1] (lactate buffer, pH 4, aqueous buffer), at least 200 µM. This compound gave a solubility (kinetic) in data set [1] (lactate buffer, pH 5, aqueous buffer) of at least 200 µM. Also, the “ThT, pH 7.5 lag-time” value in data set [2] (250 μM peptide, 10 mM HEPES pH 7.5, 1 μM ThT, 37 °C, 960 rpm, 45 h, lowest of four replicas, average of experiments) was above 45 h. The same compound showed a recovery in data set [2] (pH 7.5, residual dissolved peptide after 45 h of shaking, centrifugation and 0.22 μm filtration, HPLC, relative to amount before stress) of 100%. In data set [3], this compound registered an HMWP of 7%. In addition, the “ratio hCTR/hAMY3R” value at hAMY3R (ratio of luciferase EC50 values) is 3.9.
For the compound `CC(C)C[C@H](NC(=O)[C@H](CCCCN)NC(=O)CNC(=O)[C@H](CC(C)C)NC(=O)[C@@H](NC(=O)[C@@H]1CSSC[C@H](N)C(=O)N[C@@H](CO)C(=O)N[C@@H](CC(N)=O)C(=O)N[C@@H](CC(C)C)C(=O)N[C@@H](CO)C(=O)N[C@@H]([C@@H](C)O)C(=O)N1)C(C)C)C(=O)N[C@@H](CO)C(=O)N[C@@H](CCC(N)=O)C(=O)N[C@@H](CCC(=O)O)C(=O)N[C@@H](CC(C)C)C(=O)N[C@@H](Cc1c[nH]cn1)C(=O)N[C@@H](CCCCN)C(=O)N[C@@H](CC(C)C)C(=O)N[C@@H](CCC(N)=O)C(=O)N[C@H](C(=O)N[C@@H](Cc1ccc(O)cc1)C(=O)N1CCC[C@H]1C(=O)N[C@@H](CCCNC(=N)N)C(=O)N[C@H](C(=O)N[C@@H](CC(N)=O)C(=O)N[C@H](C(=O)NCC(=O)N[C@@H](CO)C(=O)NCC(=O)N[C@H](C(=O)N1CCC[C@H]1C(N)=O)[C@@H](C)O)[C@@H](C)O)[C@@H](C)O)[C@@H](C)O` [sCT, salmon calcitonin, reference compound], the “cCTR pEC50” value with cCTR was determined as 11.27. Besides, the “cAMY1R pEC50” value in the data set with cAMY1R is given as 10.61. Also, the “cAMY3R pEC50” value in the data set with cAMY3R is reported as 11.16.

The record behind these values is PMC11284788, “NN1213 – A Potent, Long-Acting, and Selective Analog of Human Amylin” (Journal of Medicinal Chemistry, 2024).
